# Assay results as given in the supplement of paper PMC10702517.
# ± gives the standard deviation.
# Legend:
# [1] = chemical recovery into PDMS from spiked human plasma; higher = better extraction; conditions: pooled human plasma, extraction method: PES with PDMS
# [2] = chemical recovery by SPE of plasma after PDMS sampling; higher = better extraction; conditions: pooled human plasma, extraction method: HLB SPE of plasma after PES
# [3] = chemical recovery from spiked human plasma; higher = better extraction; conditions: pooled human plasma
# [4] = extraction method: SPE only (HLB 96-well), PES comparison experiment
# [5] = extraction method: PES+SPE (3 d PDMS equilibration then HLB SPE)
# [6] = extraction method: SPE only (HLB 96-well)
# [7] = extraction method: solvent precipitation (ACN + hexane)
# 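Throughout, for chemical recovery by SPE of plasma after PDMS sampling: over 400 spiked chemicals quantified by LC-HRMS or GC-HRMS via internal standard calibration, recovery relative to spike mix added to unspiked plasma extract to correct matrix effects.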
SMILES,chemical recovery into PDMS ([1]; equilibration time (d): 1),chemical recovery into PDMS ([1]; equilibration time (d): 3),chemical recovery into PDMS ([1]; equilibration time (d): 6),chemical recovery by SPE of plasma ([2]; equilibration time (d): 1),chemical recovery by SPE of plasma ([2]; equilibration time (d): 3),chemical recovery by SPE of plasma ([2]; equilibration time (d): 6),"chemical recovery [3, 4]","chemical recovery [3, 5]","chemical recovery [3, 6]","chemical recovery [3, 7]"
CC(=O)[C@@]1(O)CC[C@H]2[C@@H]3C[C@H](C)C4=CC(=O)C=C[C@]4(C)[C@@]3(F)[C@@H](O)C[C@@]21C [Fluorometholone],1.66 ± 0.4%,3.75 ± 0.69%,4.15 ± 0.95%,45.1 ± 3.6%,48.3 ± 3.2%,40.3 ± 1.6%,50.4 ± 7.2%,,,
CNC1=C(c2cccc(C(F)(F)F)c2)C(=O)C(c2ccccc2)O1 (configuration not stated) [Flurtamone],1.85 ± 0.36%,4.2 ± 2%,5.43 ± 2.8%,15.5 ± 2.1%,11 ± 1.4%,6.82 ± 0.47%,49.3 ± 7.7%,32.8 ± 7.2%,51.2 ± 0.52%,80.8 ± 2.4%
C[Si](Cn1cncn1)(c1ccc(F)cc1)c1ccc(F)cc1 [Flusilazole],41.3 ± 2.2%,45.7 ± 3.8%,43.1 ± 5.8%,0.32 ± 0.12%,0.383 ± 0.15%,0.136 ± 0.0093%,48 ± 7.1%,45.1 ± 4.8%,39.4 ± 2.9%,70.1 ± 5.4%
CC(C)C(=O)Nc1ccc([N+](=O)[O-])c(C(F)(F)F)c1 [Flutamide],32.4 ± 1.4%,36.2 ± 3.1%,36.7 ± 1.6%,21.7 ± 2.7%,22.2 ± 0.83%,15.5 ± 1.1%,67.8 ± 5.2%,,,
CCC(=O)O[C@]1(C(=O)SCF)[C@H](C)C[C@H]2[C@@H]3C[C@H](F)C4=CC(=O)C=C[C@]4(C)[C@@]3(F)[C@@H](O)C[C@@]21C [Fluticasone propionate],32.3 ± 3%,39.3 ± 3.7%,41.3 ± 2.3%,,4.78 ± 8.3%,,41.1 ± 5.8%,,,
COCCCC/C(=N\OCCN)c1ccc(C(F)(F)F)cc1 [Fluvoxamine],2.41 ± 0.97%,1.09 ± 0.96%,2.83 ± 1.3%,1.45 ± 0.092%,1.56 ± 0.35%,0.901 ± 0.06%,41.8 ± 7.1%,4.62 ± 1.6%,51 ± 0.52%,
O=C1CC2(CCCCC2)CN1 [Gabapentin-Lactam],22.3 ± 0.47%,28.5 ± 1.6%,31.2 ± 1.6%,19.4 ± 2.5%,15.6 ± 1.9%,9.93 ± 1.6%,48.4 ± 5.6%,44.2 ± 6.2%,49.4 ± 1.6%,71.2 ± 2.9%
C#C[C@]1(O)C=C[C@H]2[C@@H]3CCC4=CC(=O)CC[C@@H]4[C@H]3CC[C@@]21CC [Gestoden],34.1 ± 1.7%,43 ± 2.3%,40.9 ± 4.1%,22.4 ± 3%,17.6 ± 1%,11.7 ± 1.3%,47 ± 7.4%,,,
COCN(COC)c1nc(N(COC)COC)nc(N(COC)COC)n1 [Hexa(methoxymethyl)melamine],39.4 ± 2.9%,45.8 ± 2.6%,41.9 ± 5.7%,7.64 ± 6.8%,3.37 ± 3%,0.745 ± 1%,7.63 ± 2.7%,38.3 ± 8.8%,,72.5 ± 2.8%
CN(C)c1nc(=O)n(C2CCCCC2)c(=O)n1C [Hexazinone],36.1 ± 1.9%,42.2 ± 4.5%,44.5 ± 2.9%,38.9 ± 6.6%,,22.5 ± 4.4%,48.5 ± 4.3%,51.5 ± 4.8%,45.4 ± 3.4%,
CCC(C)OC(=O)N1CCCCC1CCO (configuration not stated) [Icaridin],27.3 ± 1.6%,31.3 ± 3.8%,35.5 ± 13%,2.46 ± 0.24%,2.67 ± 0.36%,1.58 ± 0.1%,43.2 ± 8.4%,,45 ± 5.5%,
O=P1(NCCCl)OCCCN1CCCl (configuration not stated) [Ifosfamide],3.64 ± 0.32%,6.16 ± 1.5%,6.9 ± 1.5%,54.9 ± 6.7%,56.1 ± 4.8%,47.3 ± 4.7%,55.9 ± 6.7%,46.6 ± 3.5%,39.4 ± 3.3%,71.7 ± 1.5%
C=CCOC(Cn1ccnc1)c1ccc(Cl)cc1Cl (configuration not stated) [Imazalil],20 ± 0.37%,20.6 ± 1%,20.7 ± 1.6%,0.376 ± 0.081%,0.334 ± 0.2%,0.104 ± 0.0059%,47.6 ± 5.3%,21.3 ± 3.4%,42.1 ± 3%,75 ± 4.8%
CC(C)C1(C)N=C(c2ncccc2C(=O)O)NC1=O (configuration not stated) [Imazapyr],,,0.0849 ± 0.048%,49.5 ± 5.4%,53.1 ± 3.2%,49.2 ± 2.4%,52.5 ± 4%,44.4 ± 2.9%,44.7 ± 9.6%,67.7 ± 5.8%
O=C1NCCN1Cc1ccc(Cl)nc1 [Imidacloprid-urea],6.18 ± 0.38%,10.2 ± 1.7%,11.7 ± 2%,50.1 ± 6.5%,50.2 ± 4.6%,39.3 ± 1.7%,51.1 ± 4.4%,51.2 ± 4.7%,43.2 ± 9.1%,77.1 ± 3.8%
O=[N+]([O-])/N=C1\NCCN1Cc1ccc(Cl)nc1 [Imidacloprid],3.82 ± 0.41%,6.8 ± 1.8%,7.69 ± 1.4%,49 ± 6.3%,50.2 ± 4.6%,43.2 ± 2.7%,53.3 ± 7.2%,47.6 ± 4%,39.9 ± 8%,77.5 ± 3.8%
C1=Cc2ccccc2Nc2ccccc21 [Iminostilbene],2.55 ± 1.2%,2.02 ± 2.1%,1.36 ± 0.63%,3.69 ± 2.4%,4 ± 1.1%,2.5 ± 1.3%,28.4 ± 4.4%,10.8 ± 4.1%,44.1 ± 7%,73.2 ± 4.5%
CSc1nc(NC2CC2)nc(NC(C)(C)C)n1 [Irgarol],19.6 ± 7%,19.3 ± 6.5%,20.9 ± 3.9%,0.863 ± 0.085%,0.842 ± 0.15%,0.421 ± 0.023%,44.2 ± 6.4%,,55.7 ± 4%,81.5 ± 4.4%
CC1(C)CC(N)CC(C)(CN)C1 (configuration not stated) [Isophorone diamine],0.00705 ± 0.025%,0.0508 ± 0.069%,,,,1.22 ± 0.75%,4.27 ± 3.6%,,,
CC(C)c1ccc(NC(=O)N(C)C)cc1 [Isoproturon],37.1 ± 2.3%,40.1 ± 2.3%,40.4 ± 0.94%,5.76 ± 0.47%,5.5 ± 0.88%,3.08 ± 0.39%,53.4 ± 6.7%,46.2 ± 4.8%,43.1 ± 2.7%,74.8 ± 3.5%
CCCCCCCCCCCC(=O)N(CCO)CCO [Lauryl diethanolamide],16.8 ± 3%,24.3 ± 2.5%,26.3 ± 2.7%,24.9 ± 2.9%,18.5 ± 3.1%,13.2 ± 2.9%,51.6 ± 7.8%,,,
O=C1Nc2ccc(Cl)cc2C(c2ccccc2Cl)=NC1O (configuration not stated) [Lorazepam],4.25 ± 0.37%,8.29 ± 1.1%,9.18 ± 1.4%,38.9 ± 5.5%,38.9 ± 3%,31.1 ± 1.8%,45.6 ± 7%,36.5 ± 2.4%,30.9 ± 2.8%,72.1 ± 3.6%
Cc1cc(Cl)ccc1OCC(=O)O [MCPA],0.00252 ± 0.0044%,0.00652 ± 0.0057%,,56.1 ± 11%,64.2 ± 5.6%,58.8 ± 3.1%,59.9 ± 5.7%,46.2 ± 2.6%,43.1 ± 3%,71.8 ± 7.4%
COC(=O)Nc1nc2cc(C(=O)c3ccccc3)ccc2[nH]1 [Mebendazole],13.7 ± 1.6%,21 ± 1.4%,23.6 ± 1.8%,18.4 ± 2.3%,14 ± 1.4%,8.71 ± 0.66%,42.1 ± 5.8%,71.2 ± 11%,45 ± 2.8%,77.3 ± 3.4%
